Each structure is given as a SMILES string. Where “and” joins values, the source holds several entries; their conditions need not be identical. Equal values may be shown once.

The first assay is described as follows: Displacement of [3H]diazepam from benzodiazepine receptor in rat brain. Type of assay: tissue-based. In general terms: Loss of bound radioactivity is the signal in a displacement assay; it reports binding, not function.
As to `CN(C)c1ncnc2c1ncn2Cc1ccccc1Cl`, the pIC50 amounted to 4.89.
`CN(C)c1ncnc2c1nc(Br)n2Cc1cccc(NS(C)(=O)=O)c1`: the pIC50 stood at 5.82.
Regarding `CN(C)c1ncnc2c1nc(O)n2Cc1cccc(NC=O)c1`, the pIC50 was found to be 6.89.
The compound `CNc1nc2c(N(C)C)ncnc2n1Cc1cccc(NC=O)c1` returned a pIC50 of 6.44.
On the same count and under the same terms, to `CN(C)c1ncnc2c1nc(O)n2Cc1cccc(N)c1` belongs 5.74.
Same read-out and setting: to `CN(C)c1ncnc2c1nc(N(C)C)n2Cc1cccc(NC=O)c1` belongs 6.96; to `CNc1nc2c(N(C)C)ncnc2n1Cc1ccccc1`, 4.77.
As for `CN(C)c1ncnc2c1ncn2Cc1cccc(NC=O)c1`, the pIC50 came to 7.47.
Same read-out and setting: with `CN(C)c1ncnc2c1nc(Cl)n2Cc1cccc(N)c1` the figure was 6.72; with `COC(=O)Nc1cccc(Cn2c(Br)nc3c(N(C)C)ncnc32)c1`, 5.28; with `COc1nc2c(N(C)C)ncnc2n1Cc1cccc(N)c1`, 6.
In turn, `CN(C)c1ncnc2c1nc(N(C)C)n2Cc1ccccc1` gave a pIC50 of 5.24.
Still for that read-out and setting: with `COc1nc2c(N(C)C)ncnc2n1Cc1ccccc1` the figure was 5.27; with `CC(C)(C)OC(=O)c1cc2c3ccccc3nc-2c[nH]1`, 8; with `CNc1nc2c(N(C)C)ncnc2n1Cc1cccc(N)c1`, 5.14.
`c1ccc(COc2nccc3c2[nH]c2ccccc23)cc1` showed a pIC50 of 6.
`CCOC(=O)c1cc2c(cn1)[nH]c1ccccc12` showed a pIC50 of 8.3.
Same read-out and setting: to `CCc1nc(C(=O)OC)cc2c1[nH]c1ccccc12` belongs 5.12; to `CCC(C)Oc1nccc2c1[nH]c1ccccc12` (centres undefined), 6.33; to `CC(C)CCOc1nccc2c1[nH]c1ccccc12`, 6.27.
The compound `CC(C)Oc1cc2c(cn1)[nH]c1ccccc12` gave a pIC50 of 6.29.
On to `CCCCOc1cc2c(cn1)[nH]c1ccccc12`, for which the pIC50 amounted to 7.01.
Consider `CC(C)(C)COc1nccc2c1[nH]c1ccccc12`, for which the pIC50 is 7.02.
With `COc1cc2c(cn1)[nH]c1ccccc12`, the pIC50 came out at 6.91.
On to `Clc1cc2c(cn1)[nH]c1ccccc12`, for which the pIC50 is 7.35.
With `CCOc1cc2c(cn1)[nH]c1ccccc12`, the pIC50 worked out at 7.62.
In turn, `CCCOc1cc2c(cn1)[nH]c1ccccc12` gave a pIC50 of 7.96.
Compound `CC(C)(C)C(=O)c1nccc2c1[nH]c1ccccc12` had a pIC50 of 6.45.
`CC(C)COc1nccc2c1[nH]c1ccccc12` gave a pIC50 of 7.03.
For the compound `CCCC(=O)c1cc2c(cn1)[nH]c1ccccc12`, the pIC50 was determined as 7.64.
In turn, `CCCCc1cc2c(cn1)[nH]c1ccccc12` gave a pIC50 of 6.64.
`O=[N+]([O-])c1cc2c3ccccc3nc-2c[nH]1` returned a pIC50 of 6.9.
With `CN(C)c1ncnc2c1nc(Br)n2Cc1cccc(NC=O)c1`, the pIC50 is 7.96.
Take `CN(C)c1ncnc2c1nc(N(C)C)n2Cc1cccc(N)c1`: the pIC50 is reported as 6.22.
For the compound `Cc1nc2c(N(C)C)ncnc2n1Cc1ccccc1`, the negative-log IC50 (pIC50) was 5.07.
Still for that read-out and setting: to `CN(C)c1ncnc2c1nc(Br)n2Cc1cccc(N)c1` belongs 6.96; to `CC(=O)Nc1cccc(Cn2c(Br)nc3c(N(C)C)ncnc32)c1`, 6.08; to `CN(C)c1ncnc2c1nc(Br)n2Cc1ccccc1`, 5.52.
On the same count and under the same terms, with `CN(C)c1ncnc2c1nc(Br)n2Cc1cccc(NC(N)=O)c1` the figure was 7.6; with `CN(C)c1ncnc2c1nc(Br)n2Cc1cccc(NC(=O)c2ccccc2)c1`, 5.1.
For `CC(C)(C)COC(=O)c1cc2c3ccccc3nc-2c[nH]1`, the pIC50 is listed as 6.12.
Regarding `CN(C)c1ncnc2c1ncn2Cc1ccccc1`, the pIC50 was found to be 4.89.
The compound `CN(C)c1ncnc2c1ncn2Cc1ccccc1F` gave a pIC50 of 5.27.
The same measure, in the same setting: to `CN(C)c1ncnc2c1ncn2Cc1cccc(F)c1` belongs 5.14; to `CN(C)c1ncnc2c1ncn2Cc1cccc(O)c1`, 5.92.
`CN(C)c1ncnc2c1ncn2Cc1cccc(N)c1` registered a negative logarithm of the IC50 (pIC50) of 6.05.
Compound `CC(=O)Oc1cccc(Cn2cnc3c(N(C)C)ncnc32)c1` yielded a pIC50 of 6.36.
Compound `CN(C)c1ncnc2c1ncn2Cc1cccc(OC(=O)C(C)(C)C)c1` returned a pIC50 of 5.8.
`COc1ccccc1Cn1cnc2c(N(C)C)ncnc21` had a pIC50 of 4.7.
On the same count and under the same terms, to `CN(C)c1ncnc2c1ncn2Cc1cccc(CO)c1` belongs 5.3; to `COC(=O)c1cc2c(cn1)[nH]c1ccccc12` [BETA-CCM], 8.3.
On to `Cc1nccc2c1[nH]c1ccccc12` [HARMAN], for which the pIC50 is 4.91.
`c1ccc2c(c1)[nH]c1cnccc12` [NORHARMANE] displayed a pIC50 of 5.79.

Another assay in a line: Displacement of [3H]flunitrazepam from benzodiazepine receptor in rat forebrain.
`CCCCc1c(OC)nc2nc(C(=O)c3ccccc3)cn2c1CC` yielded a pIC50 of 7.469.
Consider `CCCCc1cc(OC)nc2nc(C(=O)c3ccccc3)cn12`, for which the pIC50 was 6.469.
For the compound `CCc1cc(OC)nc2nc(C(=O)c3ccccc3)cn12`, the pIC50 is on record as 6.53.
Compound `CCCc1c(SC)nc2nc(C(=O)c3ccccc3)cn2c1CC` registered a negative logarithm of the IC50 (pIC50) of 7.328.
In turn, `CCc1c(SC)nc2nc(C(=O)c3ccccc3)cn2c1C` displayed a pIC50 of 7.921.
Consider `CCCc1c(OC)nc2nc(C(=O)c3ccccc3)cn2c1CC`, for which the negative logarithm of the IC50 (pIC50) is given as 7.469.
Still for that read-out and setting: to `CSc1cc(C)n2cc(C(=O)c3ccccc3)nc2n1` belongs 6.721; to `CCCc1c(OC)nc2nc(C(=O)c3ccccc3)cn2c1C`, 7.071; to `COc1nc2nc(C(=O)c3ccccc3)cn2c(C)c1OC`, 6.
Still for that read-out and setting: with `CCc1cn2cc(C(=O)c3ccccc3)nc2nc1OC` the figure was 5.824; with `C=CCc1c(SC)nc2nc(C(=O)c3ccccc3)cn2c1C`, 8.097.
In turn, `CCCCc1c(OC)nc2nc(C(=O)c3ccccc3)cn2c1C` gave a pIC50 of 7.377.
On the same count and under the same terms, to `CCc1c(OC)nc2nc(C(=O)c3ccccc3)cn2c1CC` belongs 6.971; to `CCCc1cc(OC)nc2nc(C(=O)c3ccccc3)cn12`, 6.272.
On to `COc1cc(C)n2cc(C(=O)c3ccccc3)nc2n1`, for which the pIC50 was determined as 6.097.
In turn, `CCCc1cc(SC)nc2nc(C(=O)c3ccccc3)cn12` returned a pIC50 of 7.051.
Still for that read-out and setting: with `COc1nc2nc(C(=O)c3ccccc3)cn2c(C)c1CC1=CC1` the figure was 7.523 and 7.347.
On to `CCc1c(CC2=CC2)c(OC)nc2nc(C(=O)c3ccccc3)cn12`, for which the pIC50 is reported as 7.377.
Still for that read-out and setting: with `CCc1c(OC)nc2nc(C(=O)c3ccccc3)cn2c1C` [DIVAPLON] the figure was 7.252.

A further assay is described as follows: Displacement of [3H]diazepam from benzodiazepine receptor.
The compound `CCOC(=O)c1ncc2c(c1COC)-c1cc(O)ccc1C2` had a pIC50 of 9.05.
In turn, `CCCOc1cc2c(cn1)Cc1ccccc1-2` showed a pIC50 of 7.96.
As for `Nc1cc2c(cn1)Cc1ccccc1-2`, the pIC50 is 4.6.
As for `Oc1cc2c(cn1)Cc1ccccc1-2`, the pIC50 is 5.4.
In the case of `CCOC(=O)c1ncc2c(c1COC)-c1cc(OCc3ccccc3)ccc1C2C` (centres undefined), the pIC50 stood at 6.02.
Regarding `Clc1cc2c(cn1)Cc1ccccc1-2`, the pIC50 is listed as 7.35.
The compound `O=[N+]([O-])c1cc2c(cn1)Cc1ccccc1-2` returned a pIC50 of 6.9.
Same read-out and setting: with `S=C=Nc1cc2c(cn1)Cc1ccccc1-2` the figure was 8.1.
In turn, `CCOC(=O)c1ncc2c(c1CC)-c1cc(OCc3ccccc3)ccc1C2` came in with a pIC50 of 7.66.
The compound `CCOC(=O)c1cc2c(cn1)Cc1ccc(OCc3ccccc3)cc1-2` registered a pIC50 of 8.05.
`CCOC(=O)c1ncc2c(c1COC)-c1cc(OCc3ccccc3)ccc1C2` had a pIC50 of 9.
Turning to `COc1cc2c(cn1)Cc1ccccc1-2`, the pIC50 is 6.91.
Consider `CCOC(=O)c1ncc2c(c1COC)-c1cc(OC)ccc1C2`, for which the pIC50 amounted to 9.3.
`CCOC(=O)c1ncc2c(c1COC)-c1ccccc1C2` showed a pIC50 of 8.64.
As for `CCOc1cc2c(cn1)Cc1ccccc1-2`, the pIC50 came out at 7.62.
Compound `COC(=O)c1cc2c(cn1)Cc1ccccc1-2` had a pIC50 of 8.3.
On the same count and under the same terms, with `c1ccc2c(c1)Cc1cnccc1-2` the figure was 5.79.

Broadly, the pIC50 is −log10 of the IC50, conventionally taken in molar units. A high value points to a low IC50.

The values are drawn from ChEMBL document CHEMBL1154466, “3D and quantum QSAR of non-benzodiazepine compounds” (Eur J Med Chem, 2008).
